What was measured:
[1] = molecular target: T1, purified C-linker/CNBHD of mEAG1 channels (Mus musculus, UniProt Q60603); test: Tryptophan-to-flavonoid FRET binding assay; conditions: 100 µM flavonoid; 4 µM protein
T1 sequence (Q60603 505-702): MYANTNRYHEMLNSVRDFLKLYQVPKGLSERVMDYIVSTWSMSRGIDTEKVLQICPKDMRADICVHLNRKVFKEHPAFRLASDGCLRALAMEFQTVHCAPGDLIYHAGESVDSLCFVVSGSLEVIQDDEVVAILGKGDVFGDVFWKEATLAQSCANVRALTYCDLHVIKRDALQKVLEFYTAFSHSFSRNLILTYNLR

[2] = Solubility limit in recording / aqueous solutions; type: physicochemical; conditions: aqueous solutions
[3] = molecular target: T2, mEAG1 channel (Mus musculus, UniProt Q60603); test: Inside-out patch-clamp of wild-type mEAG1 channels expressed in Xenopus oocytes; type: cell-based; conditions: 50 µM
T2 sequence (Q60603 1-989): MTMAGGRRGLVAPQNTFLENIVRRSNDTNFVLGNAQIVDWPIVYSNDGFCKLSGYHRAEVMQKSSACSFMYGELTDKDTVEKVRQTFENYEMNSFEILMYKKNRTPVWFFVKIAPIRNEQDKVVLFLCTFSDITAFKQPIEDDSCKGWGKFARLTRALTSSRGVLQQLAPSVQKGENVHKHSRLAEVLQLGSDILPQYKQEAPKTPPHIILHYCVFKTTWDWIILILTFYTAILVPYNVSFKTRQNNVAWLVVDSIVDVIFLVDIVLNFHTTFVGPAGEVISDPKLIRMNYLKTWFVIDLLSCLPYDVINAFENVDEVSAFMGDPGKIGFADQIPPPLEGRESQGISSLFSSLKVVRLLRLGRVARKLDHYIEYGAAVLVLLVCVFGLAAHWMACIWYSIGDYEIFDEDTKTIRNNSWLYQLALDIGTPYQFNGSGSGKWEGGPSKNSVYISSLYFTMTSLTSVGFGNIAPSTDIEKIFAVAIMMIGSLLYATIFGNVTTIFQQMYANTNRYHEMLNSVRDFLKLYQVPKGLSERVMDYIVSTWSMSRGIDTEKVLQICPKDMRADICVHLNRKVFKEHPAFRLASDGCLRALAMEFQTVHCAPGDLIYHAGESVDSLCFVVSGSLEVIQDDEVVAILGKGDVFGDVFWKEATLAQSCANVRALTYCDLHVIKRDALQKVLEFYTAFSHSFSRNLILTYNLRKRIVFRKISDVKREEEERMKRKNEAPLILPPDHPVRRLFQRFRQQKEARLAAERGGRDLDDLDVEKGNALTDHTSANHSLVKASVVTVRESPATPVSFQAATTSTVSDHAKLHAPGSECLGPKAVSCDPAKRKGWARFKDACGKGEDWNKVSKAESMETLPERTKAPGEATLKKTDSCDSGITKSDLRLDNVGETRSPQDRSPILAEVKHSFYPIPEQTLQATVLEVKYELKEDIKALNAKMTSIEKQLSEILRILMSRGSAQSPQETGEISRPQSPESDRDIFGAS

| SMILES | decrease of peak fluorescence intensity of the C-linker/CNBHD at 341 nm [1] | solubility [2] | effect on steady-state or kinetic properties of mEAG1 channel gating [3] |
| --- | --- | --- | --- |
| O=c1c(O)c(-c2ccc(O)c(O)c2)oc2cc(O)cc(O)c12 [Quercetin, 2-(3,4-dihydroxyphenyl)-3,5,7-trihydroxy-4H-chromen-4-one] | 51% | ≤ 150 µM | – |
| C[C@]12CC[C@@H]3c4ccc(O)cc4CC[C@H]3[C@@H]1CC[C@@H]2O [Estradiol, (17β)-estra-1,3,5(10)-triene-3,17-diol] | – | – | did not shift the voltage dependence or slow the deactivation |
| COc1ccc(-c2cc(=O)c3c(O)cc(O)cc3o2)cc1 [Acacetin, 5,7-dihydroxy-2-(4-methoxyphenyl)chromen-4-one] | – | – | did not alter |
| Oc1cc(O)c2c(c1)O[C@H](c1ccc(O)c(O)c1)[C@@H](O)C2 [Catechin, (2R,3S)-2-(3,4-dihydroxyphenyl)-3,4-dihydro-2H-chromene-3,5,7-triol] | – | – | did not alter |

Source: paper PMC3581696 (The Journal of General Physiology, 2013)
